In patent US20080004271A1, “Inhibitors of TNFalpha, PDE4 and B-RAF, compositions thereof and methods of use therewith” (priority 2006, published 2008):

Columns and labels:
[1] = tested on: A375 cells; assay: Alamar Blue Viability Assay; format: cell-based; conditions: Homo sapiens, A-375, 72 h, 3 days
Protocol: A375 cells (ATCC # CRL-1619; Passage 4˜15; doubling time is roughly 18 hours) are used. Culture medium is DMEM (high glucose, with L-glutamine)+10% FBS+Pen/Strep. Cells are passed every three days at 1:20.
200 μl of medium only is added into all wells along the edges of a 96-well flat bottom plate and 180 μl of cell suspension (containing 1,000 cells) per well is added into the plate with a Low Evaporation Lid (Costar Cat # 3595). The cells are cultured overnight. Compounds and controls are diluted according to standard compound dilution protocol described below. From 30 mM stock solution, 10 mM, 3 mM, 1 mM, and 0.3 mM solutions in 100% DMSO are prepared using the following serial dilution protocol:
The 30, 10, 3, 1 and 0.3 mM solutions are diluted 1:50 (DMSO:medium) by adding 4 μl of each to 196 μl of culture medium. This yields 600 μM, 200 μM, 60 μM, 20 μM, and 6 μM secondary stock solutions. 4 μl of DMSO are added to 196 μl medium for the DMSO control as well. 20 μl of compound dilutions, including the DMSO control locations (Row G, Columns 2-10 are DMSO control wells), are added in triplicate to the cells in the 96-well plate using a repeat pipettor (see plate layout below). This yields final concentrations of 60 μM, 20 μM, 6 μM, 2 μM, and 0.6 μM containing 0.2% DMSO in each well. The plate is gently tapped to evenly distribute compound within the well. The plate is incubated at 5% CO2 at 37° C. for 3 days.
20 μl of Alamar Blue (Biosource #DAL-1100) is added to each well. The plate is incubated in 5% CO2 incubator for 4 hours. Fluorescence is measured with excitation wavelength at 530 nm and emission wavelength at 590 nm using a Victor 2 multilabel plate reader (Perkin Elmer). Data is saved with plate format as a Text file and entered into ActivityBase (Cell-based SAR; Prolif-Alamar; MTT 5 plates unfixed fit) to calculate the percent of DMSO values for each compound set of triplicate wells and IC50 curves are plotted.

[2] = biological target: T1, V600E mutant B-RAF (Homo sapiens, UniProt P15056, V600E); assay: V600E Mutant B-RAF 33P Assay; format: biochemical
T1 construct: purchased Upstate
T1 sequence (P15056 whole entry V600E): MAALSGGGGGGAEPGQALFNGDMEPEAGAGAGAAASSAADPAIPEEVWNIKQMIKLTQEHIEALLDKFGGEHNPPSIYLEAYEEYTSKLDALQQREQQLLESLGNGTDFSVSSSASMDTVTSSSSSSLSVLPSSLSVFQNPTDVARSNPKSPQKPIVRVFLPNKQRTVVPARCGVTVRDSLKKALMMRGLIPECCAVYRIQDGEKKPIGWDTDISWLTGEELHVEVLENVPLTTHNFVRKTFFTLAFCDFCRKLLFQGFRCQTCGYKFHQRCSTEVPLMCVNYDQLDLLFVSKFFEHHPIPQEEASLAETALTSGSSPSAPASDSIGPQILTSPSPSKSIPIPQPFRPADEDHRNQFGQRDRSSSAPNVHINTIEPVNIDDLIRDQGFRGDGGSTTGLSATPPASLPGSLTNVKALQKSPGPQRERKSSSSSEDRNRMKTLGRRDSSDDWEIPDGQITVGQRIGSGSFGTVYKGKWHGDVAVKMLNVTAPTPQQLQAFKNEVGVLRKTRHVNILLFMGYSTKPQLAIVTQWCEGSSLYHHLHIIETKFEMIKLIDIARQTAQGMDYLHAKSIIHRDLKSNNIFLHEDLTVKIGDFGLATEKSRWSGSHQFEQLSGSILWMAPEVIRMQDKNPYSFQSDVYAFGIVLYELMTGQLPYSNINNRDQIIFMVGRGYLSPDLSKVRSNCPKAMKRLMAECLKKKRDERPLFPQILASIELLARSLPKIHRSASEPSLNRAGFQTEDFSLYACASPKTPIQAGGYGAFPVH
Protocol: Substrate (HIS-MEK1 K97M) is prepared by Celgene Corp. as described above.
Test compound is diluted in 100% DMSO (600 μM). […] Substrate mixture is prepared as 7.5 μM HIS-MEK1 K97M in assay buffer. ATP mixture is prepared as 300 μM ATP, 75 mM MgCl2, 0.05 μCi/μl ^33P ATP in assay buffer.
In a 96 well assay plate (Falcon Polylpropylene well U-bottom), the following are added to each well: 2.5 μl of test compound solution (serial dilutions), 20 μl of substrate mixture and 17.5 μl of enzyme mixture. The plate is incubated for at least 15 minutes. 10 μl of ATP mixture is added and the plate is incubated at room temperature for about 60 minutes. 80 μl of 12.5% TCA is added to each well, and the plate is incubated for at least 20 minutes. The contents of the plate is transferred to a glass fiber filter plate (Millipore) using a Packard Harvester (washing 10× with 1×PBS). 50 μl of Scintillation-20 fluid is added to each well. The plate is read using a Packard TopCount.

[3] = tested on: pMEK1/2 in A375 cells; assay: A375 pMEK1/2 Meso Scale Assay; format: cell-based; conditions: Homo sapiens, A-375, 2 h; A375 pMEK1/2, about two hours incubation
Protocol: On the afternoon of Day 1, cells are plated in a 96-well flat bottom cell culture plate at about 50,000 cells/well in a volume of 100 μl. On the morning of Day 2, serial dilutions of test compound(s) are added to the plate. The plate is incubated for about two hours at 37° C., […]. The plate is blocked about five minutes before the compound incubation step is completed by adding 150 μl/well of MSD (Meso Scale Discovery) blocking solution-A (prepared with 20 ml 1× Tris wash buffer (25 ml of 10× Tris buffer+225 ml deionized water) and 600 mg MSD blocker A) and incubating with vigorous shaking at room temperature for one hour. The plate is washed 4× with 1× Tris wash buffer.
Cells are harvested and lysates prepared by removing medium, washing 1× with ice-cold PBS (calcium and magnesium free), adding 50 μl/well Complete Tris buffer and incubating with shaking at 4° C. for one hour. Lysate samples (25 μl) are added to an MSD Multi-Spot plate and incubated with vigorous shaking at room temperature for two hours. The plate is washed 1× with Tris wash buffer.
25 μl/well of […] detection antibody (Anti-pMEK1/2 antibody; SULFO-TAG labeled, light sensitive) in 3 ml of cold antibody dilution buffer (1 ml blocking solution-A, 1.82 ml 1× Tris wash buffer, 150 μl 2% MSD blocker D-M and 30 μl 10% MSD blocker D-R) is added and the plate is incubated with vigorous shaking at room temperature in the dark for one hour. The plate is washed 1× with Tris wash buffer.
150 μl/well of 1× MSD Read buffer T (with surfactant) is added to the plate and the plate is read using a MSD Sector instrument.

Row | SMILES | melting point | IC50 [1] | IC50 [2] | IC50 [3]
1 | NC(=O)c1sc2ncnc(-c3cccc(NC(=O)Nc4cccnc4)c3)c2c1N [Example 5.2.167, 5-amino-4-{3-[(3-pyridylamino)carbonylamino]phenyl}-thiopheno[2,3-d]pyrimidine-6-carboxamide] | 199 to 200 °C |  |  | 
2 | NC(=O)c1sc2nc(NC3CC3)nc(-c3cc(O)ccc3F)c2c1N [Example 231] |  | 0.1 to 10 µM | 0.1 to 10 µM | 0.1 to 10 µM
3 | NC(=O)c1sc2nc(NC3CC3)nc(-c3cncc(Cl)c3)c2c1N [Example 171] |  | 20 to 30 µM | 0.1 to 10 µM | 0.1 to 10 µM
4 | C[C@H](O)CNc1nc(-c2ccc(Cl)c(Cl)c2)c2c(N)c(C(N)=O)sc2n1 [Example 205] |  | 20 to 30 µM | 0.1 to 10 µM | 20 to 30 µM
5 | NC(=O)c1sc2ncnc(-c3cccc(NC(=O)Cc4ccccc4)c3)c2c1N [Example 291] |  | 10 to 20 µM | 0.1 to 10 µM | 0.1 to 10 µM
6 | COc1cncc(-c2ncnc3sc(C(N)=O)c(N)c23)c1 [Example 275] |  | 10 to 20 µM | 0.1 to 10 µM | 10 to 20 µM
7 | COc1ccc(F)c(-c2nc(NC3CC3)nc3sc(C(N)=O)c(N)c23)c1 [Example 230] |  | 20 to 30 µM | 0.1 to 10 µM | 10 to 20 µM
8 | CC(C)[C@H](CO)Nc1nc(-c2ccc(Cl)c(Cl)c2)c2c(N)c(C(N)=O)sc2n1 [Example 273] |  | 10 to 20 µM | 0.1 to 10 µM | 0.1 to 10 µM
9 | CCCNc1nc(-c2ccc(Cl)c(Cl)c2)c2c(N)c(C(N)=O)sc2n1 [Example 217] |  | 0.1 to 10 µM | 0.1 to 10 µM | 10 to 20 µM
10 | CC[C@@H](CO)Nc1nc(-c2cccc(NC(=O)Nc3ccc(C(F)(F)F)cc3)c2)c2c(N)c(C(N)=O)sc2n1 [Example 259] |  | 0.1 to 10 µM | 0.1 to 10 µM | 0.1 to 10 µM
11 | C[C@@H](CO)Nc1nc(-c2cccc(O)c2F)c2c(N)c(C(N)=O)sc2n1 [Example 240] |  | 20 to 30 µM | 0.1 to 10 µM | 0.1 to 10 µM
12 | CC(C)Cc1nc(-c2ccc(Cl)c(Cl)c2)c2c(N)c(C(N)=O)sc2n1 [Example 271] |  | 10 to 20 µM | 0.1 to 10 µM | 30 to 60 µM
13 | C[C@@H](O)CNc1nc(-c2ccc(Cl)c(Cl)c2)c2c(N)c(C(N)=O)sc2n1 [Example 206] |  | 20 to 30 µM | 0.1 to 10 µM | 20 to 30 µM
14 | CC[C@@H](CO)Nc1nc(-c2cccc(O)c2F)c2c(N)c(C(N)=O)sc2n1 [Example 242] |  | 10 to 20 µM | 0.1 to 10 µM | 0.1 to 10 µM
15 | COc1cncc(-c2nc(C)nc3sc(C(N)=O)c(N)c23)c1 [Example 276] |  | 10 to 20 µM | 0.1 to 10 µM | > 60 µM
16 | CC[C@H](CO)Nc1nc(-c2cccc(O)c2F)c2c(N)c(C(N)=O)sc2n1 [Example 243] |  | 0.1 to 10 µM | 0.1 to 10 µM | 0.1 to 10 µM
17 | NC(=O)c1sc2nc(NC3CC3)nc(-c3cccc(NC(=O)Nc4ccc(F)cc4)c3)c2c1N [Example 252] |  | 0.1 to 10 µM | 0.1 to 10 µM | 0.1 to 10 µM
18 | NC(=O)c1sc2nc(N)nc(-c3cccc(O)c3)c2c1N [Example 185] |  | 0.1 to 10 µM | 0.1 to 10 µM | 0.1 to 10 µM
19 | NC(=O)c1sc2nc(NC3CC3)nc(-c3ccc(C(F)(F)F)c(O)c3)c2c1N [Example 234] |  | 30 to 60 µM | 0.1 to 10 µM | 0.1 to 10 µM

Row | SMILES | melting point | IC50 [1] | IC50 [2] | IC50 [3]
20 | C[C@@H](CO)Nc1nc(-c2cccc(NC(=O)Nc3ccc(C(F)(F)F)cc3)c2)c2c(N)c(C(N)=O)sc2n1 [Example 261] |  | 10 to 20 µM | 0.1 to 10 µM | 0.1 to 10 µM
21 | NC(=O)c1sc2ncnc(-c3cccc(NC(=O)Nc4cccc(C(F)(F)F)c4)c3)c2c1N [Example 295] |  | 0.1 to 10 µM | 0.1 to 10 µM | 0.1 to 10 µM
22 | NC(=O)c1sc2nc(C3CC3)nc(-c3ccc(Cl)c(Cl)c3)c2c1N [Example 189] |  | 0.1 to 10 µM | 0.1 to 10 µM | 20 to 30 µM
23 | CC(C)(CN)Nc1nc(-c2ccc(Cl)c(Cl)c2)c2c(N)c(C(N)=O)sc2n1 [Example 256] |  | 0.1 to 10 µM | 0.1 to 10 µM | 0.1 to 10 µM
24 | COCCCNc1nc(-c2ccc(Cl)c(Cl)c2)c2c(N)c(C(N)=O)sc2n1 [Example 222] |  | 20 to 30 µM | 0.1 to 10 µM | 20 to 30 µM
25 | NC(=O)c1sc2nc(NC3CC3)nc(-c3cccc(NCCc4ccccc4)c3)c2c1N [Example 247] |  | 0.1 to 10 µM | 0.1 to 10 µM | 0.1 to 10 µM
26 | CC[C@@H](CO)Nc1nc(-c2ccc(Cl)c(Cl)c2)c2c(N)c(C(N)=O)sc2n1 [Example 207] |  | 10 to 20 µM | 0.1 to 10 µM | 10 to 20 µM
27 | C[C@H](CO)Nc1nc(-c2cccc(O)c2F)c2c(N)c(C(N)=O)sc2n1 [Example 241] |  | 10 to 20 µM | 0.1 to 10 µM | 0.1 to 10 µM
28 | NC(=O)CCNc1nc(-c2ccc(Cl)c(Cl)c2)c2c(N)c(C(N)=O)sc2n1 [Example 202] |  | 10 to 20 µM | 0.1 to 10 µM | 20 to 30 µM
29 | NC(=O)c1sc2nc(NC3CCNCC3)nc(-c3ccc(Cl)c(Cl)c3)c2c1N [Example 226] |  | 0.1 to 10 µM | 0.1 to 10 µM | 0.1 to 10 µM
30 | NC(=O)c1sc2nc(NC3CC3)nc(-c3ccc(Cl)cc3)c2c1N [Example 5] |  | 10 to 20 µM | 0.1 to 10 µM | 0.1 to 10 µM
31 | NC(=O)c1sc2nc(N[C@H]3CCNC3)nc(-c3ccc(Cl)c(Cl)c3)c2c1N [Example 224] |  | 10 to 20 µM | 0.1 to 10 µM | 0.1 to 10 µM
32 | Cc1c(O)cccc1-c1nc(NC(C)(C)CO)nc2sc(C(N)=O)c(N)c12 [Example 239] |  | 0.1 to 10 µM | 0.1 to 10 µM | 0.1 to 10 µM
33 | NC(=O)c1sc2nc(NC3(CO)CC3)nc(-c3ccc(Cl)c(Cl)c3)c2c1N [Example 210] |  | 0.1 to 10 µM | 0.1 to 10 µM | 0.1 to 10 µM
34 | NC(=O)c1sc2ncnc(-c3cccc(NC(=O)Nc4ccncc4)c3)c2c1N [Example 292] |  | 10 to 20 µM | 0.1 to 10 µM | > 60 µM
35 | NC(=O)c1sc2nc(NC3CC3)nc(-c3cccc(NC(=O)Nc4ccc(Cl)c(C(F)(F)F)c4)c3)c2c1N [Example 249] |  | 0.1 to 10 µM | 0.1 to 10 µM | 0.1 to 10 µM
36 | NC(=O)c1sc2ncnc(-c3cccc(NC(=O)Nc4ccccc4C(F)(F)F)c3)c2c1N [Example 296] |  | 10 to 20 µM | 0.1 to 10 µM | 30 to 60 µM
37 | NC(=O)c1sc2nc(NC3CC3)nc(-c3ccc(Cl)nc3)c2c1N [Example 169] |  | 20 to 30 µM | 0.1 to 10 µM | 0.1 to 10 µM
